Measured values from article PMC3701944 (Journal of medicinal chemistry, 2013).

Assays:
Assay type in all cases: biochemical
[1] = target: cloned human μ opioid receptor (MOP) (Homo sapiens, UniProt P35372); assay: [35S]GTPγS binding assay, inhibition of DAMGO-stimulated binding
[2] = target: cloned human δ opioid receptor (DOP) (Homo sapiens, UniProt P41143); assay: [35S]GTPγS binding assay, inhibition of DPDPE-stimulated binding
[3] = target: cloned human κ opioid receptor (KOP) (Homo sapiens, UniProt P41145); assay: [35S]GTPγS binding assay, inhibition of U69,593-stimulated binding; settings: for δ/κ: selectivity for κ relative to δ (fold)
Chain of cloned human κ opioid receptor (KOP) (P41145 whole entry): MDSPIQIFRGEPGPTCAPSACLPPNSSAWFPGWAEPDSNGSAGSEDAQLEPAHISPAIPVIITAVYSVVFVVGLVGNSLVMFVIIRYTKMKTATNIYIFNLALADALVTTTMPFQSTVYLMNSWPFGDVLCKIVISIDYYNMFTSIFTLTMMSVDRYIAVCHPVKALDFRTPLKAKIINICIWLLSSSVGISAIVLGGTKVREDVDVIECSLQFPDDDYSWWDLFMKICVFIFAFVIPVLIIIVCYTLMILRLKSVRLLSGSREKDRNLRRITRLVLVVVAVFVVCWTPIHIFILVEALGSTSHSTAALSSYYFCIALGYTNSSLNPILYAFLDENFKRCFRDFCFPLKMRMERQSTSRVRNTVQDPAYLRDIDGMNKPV

Chain of cloned human μ opioid receptor (MOP) (P35372 whole entry): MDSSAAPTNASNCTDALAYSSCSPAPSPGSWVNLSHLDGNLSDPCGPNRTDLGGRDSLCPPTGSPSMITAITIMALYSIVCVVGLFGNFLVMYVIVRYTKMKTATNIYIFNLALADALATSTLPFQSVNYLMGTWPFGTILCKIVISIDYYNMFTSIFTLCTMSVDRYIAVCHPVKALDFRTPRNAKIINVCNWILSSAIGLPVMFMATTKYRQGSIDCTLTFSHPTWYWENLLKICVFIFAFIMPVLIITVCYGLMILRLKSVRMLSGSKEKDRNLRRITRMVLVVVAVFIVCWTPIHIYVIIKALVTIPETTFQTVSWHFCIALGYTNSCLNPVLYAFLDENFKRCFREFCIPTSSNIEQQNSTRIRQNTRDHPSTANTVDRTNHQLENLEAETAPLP
Chain of cloned human δ opioid receptor (DOP) (P41143 whole entry): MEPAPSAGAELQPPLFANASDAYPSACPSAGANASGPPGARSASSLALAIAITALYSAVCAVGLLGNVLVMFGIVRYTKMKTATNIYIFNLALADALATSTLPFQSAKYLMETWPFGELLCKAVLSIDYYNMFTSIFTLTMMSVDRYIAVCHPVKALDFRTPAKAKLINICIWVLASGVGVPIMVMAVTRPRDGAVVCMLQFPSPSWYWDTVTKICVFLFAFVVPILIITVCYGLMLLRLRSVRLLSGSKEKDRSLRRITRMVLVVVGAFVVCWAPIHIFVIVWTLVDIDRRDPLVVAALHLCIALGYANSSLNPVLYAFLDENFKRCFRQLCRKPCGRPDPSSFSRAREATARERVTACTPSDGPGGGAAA

Compound	Kb [1]	Kb [2]	Kb [3]	δ/κ ([3]; ratio of Ke values)	μ/κ ([3]; ratio of Ke values, selectivity for κ relative to μ (fold))
CC(C)[C@@H](CN1CCN(c2cccc(O)c2)[C@@H](C)C1)NC(=O)[C@H]1Cc2ccc(O)cc2CN1 [10a, (3R)-7-Hydroxy-N-[(1S)-1-{[(3S)-4-(3-hydroxyphenyl)-3-methylpiperazin-1-yl]methyl}-2-methylpropyl]-1,2,3,4-tetrahydroisoquinoline-3-carboxamide]	74.2 ± 7.6 nM	1310 ± 317 nM			
CC(C)[C@@H](CN1CCN(c2cccc(O)c2)[C@H](C)C1)NC(=O)[C@H]1Cc2ccc(O)cc2CN1 [10b, (3R)-7-Hydroxy-N-[(1S)-1-[[(3R)-4-(3-hydroxyphenyl)-3-methylpiperazin-1-yl]methyl}-2-methylpropyl]-1,2,3,4-tetrahydroisoquinoline-3-carboxamide]	49.4 ± 2.7 nM	1550 ± 251 nM			
Cc1cccc(Oc2ccc(C(=O)N[C@H](CN3CCN(c4cccc(O)c4)[C@@H](C)C3)C(C)C)c(C)c2)c1 [12f, N-[(1S)-1-{[(3S)-4-(3-Hydroxyphenyl)-3-methylpiperazin-1-yl]methyl}-2-methylpropyl]-2-methyl-4-(3-methylphenoxy)benzamide]	18 ± 3 nM	14 ± 3 nM			
Cc1cccc(Oc2ccc(C(=O)N[C@H](CN3CCN(c4cccc(O)c4)[C@@H](C)C3)C(C)C)c(O)c2)c1 [12h, 2-Hydroxy-N-[(1S)-1-{[(3S)-4-(3-hydroxyphenyl)-3-methylpiperazin-1-yl]methyl}-2-methylpropyl]-4-(3-methylphenoxy)benzamide]	119 ± 28 nM	880 ± 320 nM	1.9 ± 0.4 nM		
COc1cc(C(=O)N[C@H](CN2CCN(c3cccc(O)c3)[C@@H](C)C2)C(C)C)ccc1Oc1ccccc1O [12i, 4-(2-Hydroxyphenoxy)-N-[(1S)-1-{[(3S)-4-(3-hydroxyphenyl)-3-methylpiperazin-1-yl]methyl}-2-methylpropyl]-3-methoxybenzamide]		117 ± 60 nM			
CC(C)[C@@H](CN1CCN(c2cccc(O)c2)[C@@H](C)C1)NC(=O)c1ccc(Oc2ccccc2O)c(Cl)c1 [12j, 3-Chloro-4-(2-hydroxyphenoxy)-N-[(1S)-1-{[(3S)-4-(3-hydroxyphenyl)-3-methylpiperazin-1-yl]methyl}-2-methylpropyl]benzamide]	36 ± 9 nM	210 ± 82 nM	5 ± 0.82 nM		
COc1cc(C(=O)N[C@H](CN2CCN(c3cccc(O)c3)[C@@H](C)C2)C(C)C)ccc1Oc1cc(C)ccc1O [12k, 4-(2-Hydroxy-5-methylphenoxy)-N-[(1S)-1-{[(3S)-4-(3-hydroxyphenyl)-3-methylpiperazin-1-yl]methyl}-2-methylpropyl]-3-methoxybenzamide]	10.2 ± 3 nM	117 ± 80 nM			
CC(C)[C@@H](CN1CCN(c2cccc(O)c2)[C@@H](C)C1)NC(=O)c1ccc(-c2ccccc2)cc1 [compound 22, N-[(1S)-1-{[(3S)-4-(3-Hydroxyphenyl)-3-methylpiperazin-1-yl]methyl}-2-methylpropyl]biphenyl-4-carboxamide]	8.69 ± 3 nM	258 ± 88 nM	1.87 ± 0.47 nM		
CCCCc1ccc(C(=O)N[C@H](CN2CCN(c3cccc(O)c3)[C@@H](C)C2)C(C)C)cc1 [compound 23, 4-Butyl-N-[(1S)-1-{[(3S)-4-(3-hydroxyphenyl)-3-methylpiperazin-1-yl]methyl}-2-methylpropyl]benzamide]	21.1 ± 2 nM	230 ± 3 nM	2.8 ± 1 nM		
COc1ccc(C(=O)N[C@H](CN2CCN(c3cccc(O)c3)[C@@H](C)C2)C(C)C)cc1OC [compound 24, N-[(1S)-1-{[(3S)-4-(3-Hydroxyphenyl)-3-methylpiperazin-1-yl]methyl}-2-methylpropyl]-3,4-dimethoxybenzamide]	334 ± 110 nM	> 10000 nM	81.7 ± 30 nM	>122	
N-(1S)-1-{[(3S)-4-(3-Hydroxyphenyl)-3-methylpiperazin-1-yl]methyl}-2-methylpropyl]-5-phenoxypyridine-2-carboxamide [compound 14]				1119	38
